Biological target: T1, human neprilysin (EC 3.4.24.11; NEP) (Homo sapiens, UniProt P08473)
T1 construct: purchased R&D Systems, Minneapolis, Minn; 1182-ZN
Experiment: In vitro enzyme inhibition assay at human NEP (fluorogenic peptide substrate)
Type: biochemical
Settings: recombinant human NEP; 37° C.; substrate Mca-D-Arg-Arg-Leu-Dap-(Dnp)-OH 10 μM; values given as ranges; read-out: pKi values at human NEP (converted)
How it was run: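 Recombinant human NEP pre-incubated 30 min at 37 °C with compound (10 μM to 20 pM), then cleaved 20 min at 37 °C with 10 μM Mca-D-Arg-Arg-Leu-Dap-(Dnp)-OH in HEPES pH 7.5, NaCl, Tween-20, 10 μM ZnSO4. Stopped with acetic acid; fluorescence Ex 320/Em 405 nm; apparent Ki from v=v0/[1+(I/K′)] fit, reported as pKi.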

T1 sequence (P08473 52-750 limits assumed): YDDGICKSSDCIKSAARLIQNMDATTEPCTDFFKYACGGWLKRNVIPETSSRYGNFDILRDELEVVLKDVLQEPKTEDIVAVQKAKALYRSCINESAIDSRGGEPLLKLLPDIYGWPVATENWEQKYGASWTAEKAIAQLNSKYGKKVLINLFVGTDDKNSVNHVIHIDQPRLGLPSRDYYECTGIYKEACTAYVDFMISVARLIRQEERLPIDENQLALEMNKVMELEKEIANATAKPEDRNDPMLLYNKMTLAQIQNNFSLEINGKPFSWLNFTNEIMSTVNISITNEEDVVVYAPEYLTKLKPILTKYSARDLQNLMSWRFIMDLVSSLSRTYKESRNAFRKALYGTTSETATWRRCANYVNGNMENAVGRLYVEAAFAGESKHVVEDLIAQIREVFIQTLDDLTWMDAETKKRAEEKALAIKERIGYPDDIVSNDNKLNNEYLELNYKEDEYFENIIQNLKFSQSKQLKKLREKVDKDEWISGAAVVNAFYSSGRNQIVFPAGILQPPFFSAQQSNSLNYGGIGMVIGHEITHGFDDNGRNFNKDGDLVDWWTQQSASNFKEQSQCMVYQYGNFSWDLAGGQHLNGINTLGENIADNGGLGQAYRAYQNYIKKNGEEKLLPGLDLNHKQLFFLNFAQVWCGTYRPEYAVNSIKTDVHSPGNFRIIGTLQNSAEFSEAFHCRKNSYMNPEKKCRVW

Row | Structure (SMILES) | Ki
1 | CCc1ccc(C(=O)N[C@H](Cc2ccccc2)[C@@H](O)C(=O)O)cc1NC(=O)Nc1ccsc1C(=O)O [Example 10-78, 3-{3-[5-((1R,2R)-1-Benzyl-2-carboxy-2-hydroxy-ethylcarbamoyl)-2-ethyl-phenyl]-ureido}-thiophene-2-carboxylic acid] | 12.6 to 100 nM
2 | CCCCOC(=O)Nc1cc(C(=O)N[C@H](Cc2ccccc2)[C@@H](O)C(=O)O)ccc1CC [Example 10-79, (2R,3R)-3-(3-Butoxycarbonylamino-4-ethyl-benzoylamino)-2-hydroxy-4-phenyl-butyric acid] | 12.6 to 100 nM
3 | CC(C)c1ccc(C(=O)N[C@H](Cc2ccccc2)[C@@H](O)C(=O)O)cc1-c1ccncc1 [Example 10-80, (2R,3R)-2-Hydroxy-3-(4-isopropyl-3-pyridin-4-yl-benzoylamino)-4-phenyl-butyric acid] | 12.6 to 100 nM
4 | CC(C)c1ccc(C(=O)N[C@H](Cc2ccccc2)[C@@H](O)C(=O)O)cc1-c1cccc(C(=O)N(C)C)c1 [Example 10-81, (2R,3R)-3-[(3′-Dimethylcarbamoyl-6-isopropyl-biphenyl-3-carbonyl)-amino]-2-hydroxy-4-phenyl-butyric acid] | 12.6 to 100 nM
5 | Cc1cc(C(=O)N[C@H](Cc2ccccc2)[C@@H](O)C(=O)O)cc(C)c1F [Example 10-82, (2R,3R)-3-(4-Fluoro-3,5-dimethyl-benzoylamino)-2-hydroxy-4-phenyl-butyric acid] | 12.6 to 100 nM
6 | O=C(O)C[C@@H](Cc1ccccc1Cl)NC(=O)CCCc1ccccc1C(=O)O [Example 11, 2-{3-[(R)-1-Carboxymethyl-2-(2-chlorophenyl)-ethylcarbamoyl]-propyl}-benzoic Acid] | 1.26 to 10 nM
7 | Cc1ccc(C(=O)N[C@@H](CC(=O)O)Cc2ccccc2Cl)cc1-c1ccccc1C(=O)O [Example 12, 5′-[(R)-2-Carboxy-1-(2-chloro-benzyl)-ethylcarbamoyl]-2′-methyl-biphenyl-2-carboxylic Acid] | 1.26 to 10 nM
8 | O=C(O)Cc1ccccc1-c1cccc(C(=O)N[C@@H](CC(=O)O)Cc2ccccc2Cl)c1 [Example 13-1, (R)-3-[(2′-Carboxymethyl-biphenyl-3-carbonyl)-amino]-4-(2-chloro-phenyl)-butyric acid] | 12.6 to 100 nM
9 | O=C(O)C[C@@H](Cc1ccccc1Cl)NC(=O)c1cccc(-c2ccccc2C(=O)O)c1 [Example 13-2, 3′-[(R)-2-Carboxy-1-(2-chloro-benzyl)-ethylcarbamoyl]-biphenyl-2-carboxylic acid] | 1.26 to 10 nM
10 | Cc1ccc(C(=O)N[C@@H](CC(=O)O)Cc2ccccc2Cl)cc1-c1ccccc1CC(=O)O [Example 13-3, (R)-3-[(2′-Carboxymethyl-6-methyl-biphenyl-3-carbonyl)-amino]-4-(2-chloro-phenyl)-butyric acid] | 1.26 to 10 nM
11 | O=C(O)Cc1ccccc1-c1ccc(C(=O)N[C@@H](CC(=O)O)Cc2ccccc2Cl)cc1 [Example 13-4, (R)-3-[(2′-Carboxymethyl-biphenyl-4-carbonyl)-amino]-4-(2-chloro-phenyl)-butyric acid] | 12.6 to 100 nM
12 | CC1=NN(c2ccc(C(=O)N[C@@H](CC(=O)O)Cc3ccccc3Cl)cc2Cl)C(=O)C1 [Example 13-5, (R)-3-[3-Chloro-4-(3-methyl-5-oxo-4,5-dihydro-pyrazol-1-yl)-benzoylamino]-4-(2-chloro-phenyl)-butyric acid] | 12.6 to 100 nM
13 | CC1=NN(c2ccc(C(=O)N[C@@H](CC(=O)O)Cc3ccccc3Cl)cc2)C(=O)C1 [Example 13-6, (R)-4-(2-Chlorophenyl)-3-[4-(3-methyl-5-oxo-4,5-dihydro-pyrazol-1-yl)-benzoylamino]-butyric acid] | 12.6 to 100 nM
14 | CC1=NN(c2cccc(C(=O)N[C@@H](CC(=O)O)Cc3ccccc3Cl)c2)C(=O)C1 [Example 13-8, (R)-4-(2-Chlorophenyl)-3-[3-(3-methyl-5-oxo-4,5-dihydro-pyrazol-1-yl)-benzoylamino]-butyric acid] | 12.6 to 100 nM
15 | CCCC1=NN(c2cccc(C(=O)N[C@@H](CC(=O)O)Cc3ccccc3Cl)c2)C(=O)C1 [Example 13-9, (R)-4-(2-Chlorophenyl)-3-[3-(5-oxo-3-propyl-4,5-dihydro-pyrazol-1-yl)-benzoylamino]-butyric acid] | 12.6 to 100 nM
16 | CCc1ccc(C(=O)N[C@@H](CC(=O)O)Cc2ccccc2Cl)cc1-n1c(=O)[nH]c2sc(C)cc2c1=O [Example 13-10, (R)-4-(2-Chlorophenyl)-3-[4-ethyl-3-(6-methyl-2,4-dioxo-1,4-dihydro-2H-thieno[2,3-d]pyrimidin-3-yl)-benzoylamino]-butyric acid] | 12.6 to 100 nM
17 | Cc1ccc(C(=O)N[C@@H](CC(=O)O)Cc2ccccc2C(F)(F)F)cc1-c1ccccc1C(=O)O [Example 14, 5′-[(R)-2-Carboxy-1-(2-trifluoromethyl-benzyl)-ethylcarbamoyl]-2′-methyl-biphenyl-2-carboxylic Acid] | 1.26 to 10 nM

Reference: patent publication US8686184B2, “Neprilysin inhibitors” (Theravance, Inc., priority 2011, dated 2014)
